Data published in patent US20090012018A1, “Inhibition of pancretic cancer cell growth” (priority 2004, published 2009).
Entries after “also recorded” stand apart in the source; their conditions may differ. One block for each compound: values may come before it.

What was measured:
[1] = system: Hedgehog signaling (GliBS-luc reporter); experiment: GliBS-luciferase reporter assay; format: cell-based, human; details: BxPC3 cells; cyclopamine 10 μM
Experimental: The cell lines were plated the day prior to transfection at a density of 8×10^4 cells/well in a 24-well plate. The luciferase reporter constructs used included: Top-Flash and Fop-Flash containing multimerized Tcf-Lef binding sites or nonfunctional sites, respectively; TK-Luc (Promega); and GliBS containing 8×Gli binding sites upstream of the TK minimal promoter (Sasaki et al., Development, 124:1313-1322, 1997). In different experiments, the reporter constructs were co-transfected with an expression vector containing a dominant-negative form of Lef1 or the endogenous Wnt inhibitor Icat. The dominant negative Lef1 (gift from S. Pleasure) was generated by cloning the 63 amino acid N-terminal deleted form of Lef1 into the pEF5 plasmid. This construct also contains an IRES-EGFP cassette. The cDNA coding for the Icat protein was cloned into pIRES2-EGFP (BD Biosciences Clontech). Transfections were performed using the Effectene transfection reagent […] according to the user's manual. A Renilla luciferase plasmid (Promega) was included to control for transfection efficiency. Transfected cells were cultured in medium containing serum. […] Cells were harvested 24 hrs after transfection, and luciferase activity was assayed using the Dual Luciferase kit (Promega), according to the user's manual. […]

[2] = system: Tcf1; experiment: Immunofluorescence of Tcf expression in pancreatic cancer cells; format: cell-based, human; details: pancreatic cancer cells (Panc4.21); cyclopamine for 24 hrs (FIG. 4C) or sulindac-treated
[3] = system: Wnt signaling (Top-Flash reporter); experiment: Fop/Top-Flash luciferase reporter assay; format: cell-based, human; details: for Top-Flash reporter activity (Wnt signaling): CFPAC-1, BxPC3, L3.6sl, Panc4.21, 24 hrs after transfection, sulindac 250 μM, sulindac sulfone 150 μM, cyclopamine 10 μM, or co-transfection
Experimental: (§1) The cell lines were plated the day prior to transfection at a density of 8×10^4 cells/well in a 24-well plate. The luciferase reporter constructs used included: Top-Flash and Fop-Flash containing multimerized Tcf-Lef binding sites or nonfunctional sites, respectively; TK-Luc (Promega); and GliBS containing 8×Gli binding sites upstream of the TK minimal promoter (Sasaki et al., Development, 124:1313-1322, 1997). In different experiments, the reporter constructs were co-transfected with an expression vector containing a dominant-negative form of Lef1 or the endogenous Wnt inhibitor Icat. The dominant negative Lef1 (gift from S. Pleasure) was generated by cloning the 63 amino acid N-terminal deleted form of Lef1 into the pEF5 plasmid. This construct also contains an IRES-EGFP cassette. The cDNA coding for the Icat protein was cloned into pIRES2-EGFP (BD Biosciences Clontech). Transfections were performed using the Effectene transfection reagent […] according to the user's manual. A Renilla luciferase plasmid (Promega) was included to control for transfection efficiency. Transfected cells were cultured in medium containing serum. […] Cells were harvested 24 hrs after transfection, and luciferase activity was assayed using the Dual Luciferase kit (Promega), according to the user's manual.
For each Fop-luciferase or Top-luciferase experiment, a renilla luciferase construct was included. For each experimental condition (drug treatment, co-transfection or siRNA), triplicate Top- and Fop-luciferase samples were analyzed. To equilibrate the total vector-DNA (or siRNA) amount in all samples, equivalent amounts of an empty expression vector or unrelated siRNAs were transfected into control samples. The following equations were used to obtain the normalized luciferase values and the relative (fold) activation. The firefly luciferase (Fop and Top) values were divided by the renilla luciferase values to obtain the normalized luciferase values. The normalized Top values for each condition were divided by the Fop values of the same condition (e.g., untreated Top/untreated Fop; drug-treated Top/drug-treated Fop). […] To minimize the number of bars in each figure, only representative average Fop values are included in the graphs.

[4] = system: Panc1.28; experiment: Sensitivity of pancreatic adenocarcinoma cells to drug treatment (cell proliferation, survival); format: cell-based, human; details: FIG. 6
Experimental: (§2) Human pancreatic adenocarcinoma cell lines HPAC, SW1990, Mpanc-96, SU86.86, PL45, Panc10.05 Panc2.03 and Panc8.13 were obtained from ATCC; cell lines MiaPaCa2, Panc1, CFPAC-1, HPAFII, Capan-2, AsPC1, Hs766T and BxPC3 were a gift from Schering Plough; cell lines COLO357, L3.3, L3.6 pl and L3.6 sl were a gift from I. Fidler; cell lines Panc3.27, Panc4.21, Panc5.04, Panc2.13, Panc1.28 and Panc6.03 were a gift from E. Jaffee. BxPC3 and the Panc cell lines were grown in RPMI medium (Gibco) supplemented with 10% FBS, L-glutamine and penicillin/streptomycin; medium for the Panc cells was also supplemented with insulin-transferrin-selenium (Gibco). The CFPAC-1, Panc1, AsPC1, Hs766T, L3.6sl and L3.6pl were grown in DMEM without phenol red (CellGro), supplemented with 10% FBS. Derivation and culture of PDC cells was as described (Schreiber et al., Gastroenterology, 127:250-260, 2004).
(§3) The small chemical inhibitors were used at the following final concentrations: up to 250 μM for sulindac (Sigma), up to 300 μM for sulindac sulfone (Calbiochem or ICN), NS-398 up to 25 μM (Calbiochem), sodium salicylate up to 100 μM (Calbiochem). […] To test for drug sensitivity, the cells were plated in control medium or in medium containing the drug of interest for 2 to 5 days. The culture media was changed every 48 hrs. The images showing cell morphology were taken with a Nikon inverted microscope.
(§4) Cells were pulsed with 10 μM BrdU for two hours and then harvested and fixed. BrdU incorporation was detected with a fluorescein isothiocyanate conjugated anti-BrdU antibody (BD Biosciences) and total DNA was stained with 7-AAD (BD Biosciences). FACS analysis was performed according to the BD Biosciences BrdU flow kit manual. Cells in S-phase were defined as the BrdU-positive cell population with a DNA content between 2N and 4N. According to the manual, apoptotic cells were defined as a subpopulation of G0/G1 cells with DNA content lower than the diploid amount (<2N).

[5] = system: Panc10.05; experiment: as above; format: cell-based, human; details: Panc 10.05; FIG. 6
Experimental: as §2, §3, §4

[6] = system: Tcf4; experiment: Immunofluorescence of Tcf expression in pancreatic cancer cells; format: cell-based, human; details: cyclopamine for 24 hrs (FIG. 4C) or sulindac-treated
[7] = system: pancreatic adenocarcinoma cell lines; experiment: Growth, BrdU incorporation and apoptosis of pancreatic cancer cell lines (results stated for the lines together); format: cell-based, human; details: for pancreatic cancer cell growth or survival: drug treatment vs untreated control cells, NS-398 up to 25 μM, sodium salicylate up to 100 μM, sulindac sulfone up to 300 μM, FIG. 3B, 5B
Experimental: as §3, §4, §1
Small interfering RNA (siRNA) oligonucleotides against β-catenin containing two thymidine residues (dTdT) at the 3′ end of the sequence (5′-[…] […] T-3′ set forth as SEQ ID NO:57) were used for treatment of cancer cells as described (Verma et al., Clin Cancer Res, 9:1291-1300, 2003). The GLI1 siRNA (sense 5′-[…] […]-3′ set forth as SEQ ID NO:58) was also used as described (Sanchez et al., Proc Natl Acad Sci USA 101:12561-12566, 2004). Small interfering RNA against GLI2 was ordered against the target sequence 5-[…] […] A-3′, set forth as SEQ ID NO:59). […] Cells were transfected with oligofectamine (Invitrogen) according to the user's manual, with a final siRNA concentration of 100 or 300 nM. Transfected cells were incubated for 48 hrs before harvesting.

[8] = Solubility; format: physicochemical; details: required oral application
[9] = system: BxPC3; experiment: Sensitivity of pancreatic adenocarcinoma cells to drug treatment (cell proliferation, apoptosis); format: cell-based, human; details: vs untreated controls, FIG. 3B
Experimental: as §2, §3, §4

[10] = system: Panc4.21; experiment: as above; format: cell-based, human; details: vs untreated controls, FIG. 3B
Experimental: as §2, §3, §4

[11] = system: L3.6sl; experiment: as above; format: cell-based, human; details: vs untreated controls, FIG. 3B
Experimental: as §2, §3, §4

[12] = system: CFPAC-1; experiment: as above; format: cell-based, human; details: CFPAC-1 (CFPAC); vs untreated controls; FIG. 3B, 5
Experimental: The culture media was changed every 48 hrs.
as §4

[13] = system: CFPAC-1 tumors; experiment: Subcutaneous tumor treatment in nude mice; format: in vivo, CD-1 nude mice; details: treated for five days vs controls, sulindac 3 mg/mouse/day injected, sulindac sulfone 1.5 mg/mouse/day orally
Experimental: (§5) A total of 0.1 ml Hanks' balanced salt solution and matrigel (1:1) containing 2×10^6 cells was injected subcutaneously into CD-1 nude mice (Charles River Laboratories). Tumors were grown for 4 days to a minimum volume of 125 mm^3. Treatment was initiated simultaneously for all subjects. Mice were injected with vector alone (peanut oil: PBS 7:3 v/v) or with a sulindac solution (3 mg/mouse/day) daily for 5 days. Sulindac sulfone was administered orally (1.5 mg/mouse/day). At the end of the treatment period, tumors were excised from mice, weighed and photographed.

[14] = system: BxPC3 tumors; experiment: Subcutaneous tumor treatment in nude mice; format: in vivo, CD-1 nude mice
Experimental: as §5

[15] = system: L3.6sl tumors; experiment: Subcutaneous tumor treatment in nude mice; format: in vivo, CD-1 nude mice
Experimental: as §5
Individual or combined treatment was initiated after tumors were palpable.

[16] = sulindac sulfone orally 1.5 mg/mouse/day, five days
[17] = treated for five days vs untreated controls, sulindac 3 mg/mouse/day injected, sulindac sulfone 1.5 mg/mouse/day orally

Compound: CC1=C2C[C@H]3[C@@H](CC=C4C[C@@H](O)CC[C@@]43C)[C@@H]2CC[C@]12O[C@@H]1C[C@H](C)CN[C@H]1[C@H]2C [cyclopamine, 11-deoxojervine]
reduction of Hedgehog signaling [1]: 17% | Tcf1 expression [2]: inhibits Tcf4 and Tcf1 expression; also recorded: reduce expression | reduction of Wnt signaling ([3]; BxPC3 cells, cyclopamine 10 μM): ~23% | sensitivity / survival (phase contrast images) [4]: not sensitive | sensitivity / survival (phase contrast images) [5]: not sensitive | Tcf4 expression [6]: efficiently abolished | Tcf4 expression ([6]; listed as Cyclopamine): inhibits Tcf4 and Tcf1 expression

Top-Flash reporter activity (Wnt signaling) [3]: reduction of Top-Flash activity
Compound: ICAT: endogenous Wnt inhibitor; cDNA cloned into pIRES2-EGFP expression vector and transfected
cell proliferation (BrdU incorporation) after transfection ([7]; four pancreatic cancer cell lines, 48 hours after transfection, siRNA 100 nM or 300 nM, FIG. 2C, 2D): strongly inhibits growth; also recorded: significantly reduced

Compound: CS(=O)(=O)Nc1ccc([N+](=O)[O-])cc1OC1CCCCC1 [NS-398]
pancreatic cancer cell growth or survival [7]: Neither NS-398 (blocks COX-2 activity) nor salicylate (blocks COX-2 transcription) showed any measurable effect | pancreatic cancer cell growth or survival ([7]; listed as NS398): comparable growth to untreated control cells

Compound: CC1=C(CC(=O)O)c2cc(F)ccc2/C1=C\c1ccc(S(C)(=O)=O)cc1 [sulindac sulfone]
solubility [8]: limited solubility | Top-Flash reporter activity (Wnt signaling) [3]: inhibit Wnt activity; also recorded: generally more effective than sulindac in blocking Wnt signaling | Top-Flash reporter activity (Wnt signaling) ([3]; listed as Sulindac sulfone): blocked Wnt signaling | sensitivity / survival (phase contrast images) [4]: not sensitive | sensitivity / survival (phase contrast images) [5]: not sensitive | cell proliferation as measured by BrdU incorporation ([7]; 75 μM sulindac sulfone, 5 μM cyclopamine or both, FIG. 4H): inhibits cell proliferation | pancreatic cancer cell growth or survival [7]: blocked Wnt signaling and cell survival | cell growth [9]: strongly inhibits growth | cell growth [10]: strongly inhibits growth | cell growth [11]: strongly inhibits growth | cell growth (proliferation, apoptosis) [12]: only mildly affected; also recorded: diminishes growth | tumor growth (volume, size) [13]: largely unaffected | reduction of tumor mass [14, 16]: 60% | tumor growth [14, 17]: reduced | reduction of tumor mass [15, 16]: 50% | tumor growth [15, 17]: reduced

Compound: O=C([O-])c1ccccc1O.[Na+] [sodium salicylate]
pancreatic cancer cell growth or survival [7]: comparable growth to untreated control cells | pancreatic cancer cell growth or survival ([7]; listed as salicylate): Neither NS-398 (blocks COX-2 activity) nor salicylate (blocks COX-2 transcription) showed any measurable effect
